These results are taken from patent EP3898610B1, “NOVEL AZA-HEXAPHENE ANTIBIOTIC COMPOUNDS” (Fondazione Istituto Insubrico di Ricerca per la Vita, priority 2018, dated 2020).

The structures appear in SMILES notation. Values after ≈ are worked out from the molar mass of the structure shown. A value given as a limit tells only on which side of the number the result lay.

Format in all cases: cell-based
The subject of test [1] is L4187 E. faecium VanA - Lnz R - Cpx R. Put plainly: microbe, parasite or virus in culture. The conditions noted are these: Enterococcus faecium. How it is done:
(§1) Antibacterial activity. […] Each bacterial strain was inoculated with 2-5×10^5 CFU/ml, Candida albicans with 10^4 CFU/ml. Cultures were incubated at 35°C in air. After 18-24 hours visual readings were performed and MICs (Minimal Inhibitory Concentrations) determined. The effect of 30% bovine serum was determined under the same experimental conditions. The strains used were clinical isolates or strains from American Type Culture Collection (ATCC).

The subject of test [2] is L1577 S. epidermidis. The experiment in a line: MIC, broth microdilution (CLSI). As to conditions: Staphylococcus epidermidis. How it is done: as §1
A general note: In broth dilution the organism is exposed to a series of concentrations in liquid medium.

Test [3] relates to L49 S. pyogenes C203. The experiment in a line: MIC, broth microdilution (CLSI). The conditions noted are these: Streptococcus pyogenes. The method, then: as §1
Test [4] deals with VA80201 S. aureus CA-MRSA. The experiment in a line: MIC, broth microdilution (CLSI). The conditions noted are these: Staphylococcus aureus, MRSA. The method, then:
as §1

Test [5] relates to L1400 S. aureus HA-MRSA. The experiment in a line: MIC, broth microdilution (CLSI). The conditions noted are these: Staphylococcus aureus, MRSA. How it is done: as §1
The subject of test [6] is L3294 M. catarrhalis. Put plainly: MIC, broth microdilution (CLSI). As to conditions: Moraxella catarrhalis. The method, then: as §1
Test [7] concerns VA8101 S. agalactiae (Group B). The experiment in a line: MIC, broth microdilution (CLSI). The conditions noted are these: Streptococcus agalactiae. The method, then:
as §1

The subject of test [8] is L568 E. faecium. Put plainly: MIC, broth microdilution (CLSI). As to conditions: Enterococcus faecium. How it is done:
as §1

Test [9] has as its system L1729 S. haemolyticus MDR. The experiment in a line: MIC, broth microdilution (CLSI). The conditions noted are these: Staphylococcus haemolyticus. The method, then:
as §1

In test [10] the test system is L44 S. pneumoniae. Put plainly: MIC, broth microdilution (CLSI). As to conditions: Streptococcus pneumoniae. The method, then: as §1
Test [11] has as its system L47 E. coli. The experiment in a line: MIC, broth microdilution (CLSI). As to conditions: Escherichia coli. How it is done:
as §1

Test [12] deals with L569 E. faecium VanA. The experiment in a line: MIC, broth microdilution (CLSI). The method, then: as §1
The test system of test [13] is L819 S. aureus Smith. The experiment in a line: MIC, broth microdilution (CLSI). As to conditions: Staphylococcus aureus. How it is done: as §1
Test [14] has as its system L100 S. aureus ATCC6538P. The experiment in a line: MIC, broth microdilution (CLSI). The conditions noted are these: Staphylococcus aureus, ATCC6538P. How it is done:
as §1

The test system of test [15] is L1730 S. haemolyticus. Put plainly: MIC, broth microdilution (CLSI). How it is done: as §1
Test [16] has as its system L4061 S. aureus MRSA - GISA. Put plainly: MIC, broth microdilution (CLSI). As to conditions: Staphylococcus aureus, MRSA. How it is done: as §1
The test system of test [17] is L560 E. faecalis VanA. Put plainly: MIC, broth microdilution (CLSI). The conditions noted are these: Enterococcus faecalis. The method, then: as §1
Test [18] has as its system L559 E. faecalis. The experiment in a line: MIC, broth microdilution (CLSI). As to conditions: Enterococcus faecalis. The method, then:
as §1

Test [19] deals with L145 C. albicans. Put plainly: MIC, broth microdilution (CLSI). The conditions noted are these: Candida albicans. The method, then: Antibacterial activity. The antimicrobial activity of the antibiotic 103/33-F710 was determined by the broth microdilution method according to the procedures published by the Clinical and Laboratory Standards Institute (CLSI), formerly the National Committee for Clinical Laboratory Standards (NCCLS) (document M07-A9). Microorganisms were grown in either cation-adjusted Mueller Hinton Broth (Staphylococci, Enterococci, Moraxella catarrhalis, Escherichia coli), Todd Hewitt medium (Streptococci) or RPMI 1640 medium for Candida albicans on 96-well microtiter plates. Each bacterial strain was inoculated with 2-5×10^5 CFU/ml, Candida albicans with 10^4 CFU/ml. Cultures were incubated at 35°C in air. After 18-24 hours visual readings were performed and MICs (Minimal Inhibitory Concentrations) determined. The effect of 30% bovine serum was determined under the same experimental conditions. The strains used were clinical isolates or strains from American Type Culture Collection (ATCC). The antibiotic 103/33-F710 was dissolved in DMSO to obtain a 1000 µg/ml stock solution, and subsequently diluted in water to obtain working solution. Table 5: Antimicrobial activity reported as MIC (µg/ml) of ID103/33-F710
Antibacterial activity. The antimicrobial activity of the antibiotic 103/33-F696 was determined by the broth microdilution method according to the procedures disclosed in Example 7. Table 6: Antimicrobial activity reported as MIC (µg/ml) of compound 2 (103/33-F696)
Antibacterial activity. The antimicrobial activity of the antibiotic 103/33-F712 was determined by the broth microdilution method according to the procedures disclosed in Example 7. Table 7: Antimicrobial activity reported as MIC (µg/ml) of ID103/33-F712

As for `CN[C@H](CC(C)C)C(=O)N[C@H]1C(=O)N[C@@H](CC(N)=O)C(=O)N[C@H]2C(=O)N[C@H]3C(=O)N[C@H](C(=O)N[C@H](C(=O)O)c4cc(O)cc(O)c4-c4cc3ccc4O)[C@H](O)c3ccc(c(Cl)c3)Oc3cc2cc(c3O[C@@H]2O[C@H](CO)[C@@H](O)[C@H](O)[C@H]2O[C@H]2C[C@](C)(N)[C@H](O)[C@H](C)O2)Oc2ccc(cc2Cl)[C@H]1O` [Vancomycin, reference compound], the MIC in test [1] was greater than 128 µg/mL; in test [2], 1 µg/mL (≈ 0.69 µM); in test [3] it was 0.5 µg/mL (≈ 0.345 µM); in [4] it was 1 µg/mL (≈ 0.69 µM); in test [5] it was 1 µg/mL (≈ 0.69 µM); in test [6], 16 µg/mL (≈ 11 µM). In addition, the MIC in test [7] was 0.5 µg/mL (≈ 0.345 µM); in [8], 2 µg/mL (≈ 1.38 µM); in test [9], 2 µg/mL (≈ 1.38 µM); in [10], 0.5 µg/mL (≈ 0.345 µM); in [11], greater than 128 µg/mL; in [12] (Enterococcus faecium) it was greater than 128 µg/mL. Moreover, the MIC in test [12] (L569 E. faecium VanA 30 % SB (30% bovine serum)) was greater than 128 µg/mL; in test [13] it was 1 µg/mL (≈ 0.69 µM); in test [14], 1 µg/mL (≈ 0.69 µM); in test [15] (L1730 S. haemolyticus, cation-adjusted Mueller Hinton Broth, 35°C, 18-24 hours), 0.5 µg/mL (≈ 0.345 µM); in test [15] (Staphylococcus haemolyticus, L1730 S. haemolyticus, cation-adjusted Mueller Hinton Broth, 35°C, 18-24 hours) it was 1 µg/mL (≈ 0.69 µM); in test [16], 4 µg/mL (≈ 2.76 µM). The values for the MIC in [17] and in test [18] were greater than 128 µg/mL and 0.5 µg/mL (≈ 0.345 µM), respectively.
Consider `C[C@@H]1[C@H](O)[C@@H](C)/C=C/C=C/C=C/C=C/C=C/C=C/C=C/[C@H](O[C@@H]2O[C@H](C)[C@@H](O)[C@H](N)[C@@H]2O)C[C@@H]2O[C@](O)(C[C@@H](O)C[C@@H](O)[C@H](O)CC[C@@H](O)C[C@@H](O)CC(=O)O[C@H]1C)C[C@H](O)[C@H]2C(=O)O` [amphotericin B, reference compound], for which the MIC in [19] turned out to be 0.5 µg/mL (≈ 0.541 µM).
Turning to `COc1c(OC)c2c(=O)c3cc(C)n(C(CC4CN(C)C(=N)N4)C(=O)O)c(=O)c3c(=O)c2c2cc3c(=O)c4cc(O)cc(O)c4c(=O)c3c(O)c12` (stereo not drawn) [compound 2, 2-(8,10,12-Trihydroxy-6,7-dimethoxy-3-methyl-1,5,9,14,16-pentaoxo-5,9,14,16-tetrahydro-1H-2-aza-hexaphen-2-yl)-3-(2-imino-1-methyl-imidazolidin-4-yl)-propionic acid], the MIC in test [19] is greater than 512 µg/mL; in test [2], 0.03 µg/mL (≈ 0.0431 µM); in test [3], 1 µg/mL (≈ 1.44 µM); in test [5], 0.03 µg/mL (≈ 0.0431 µM); in test [6], 64 µg/mL (≈ 91.9 µM); in test [8], 0.125 µg/mL (≈ 0.179 µM). Also, the MIC was 0.06 µg/mL (≈ 0.0861 µM) in [9]; 32 µg/mL (≈ 45.9 µM) in test [10]; greater than 512 µg/mL in test [11]; 0.5 µg/mL (≈ 0.718 µM) in test [12] (Enterococcus faecium); 0.015 µg/mL (≈ 0.0215 µM) in [13]; 0.03 µg/mL (≈ 0.0431 µM) in test [14]. Besides, the MIC in [15] (Staphylococcus haemolyticus), in test [17] and in test [18] was 0.03 µg/mL (≈ 0.0431 µM) in each case.
